{"source": "PubChem BioAssay (NCI)", "assay_in_all_cases": "NCI-60 cell line screen, 48 h", "key": {"786-0 renal": {"system": "786-0 renal"}, "A498 renal": {"system": "A498 renal"}, "A549 NSCLC": {"system": "A549 NSCLC"}, "ACHN renal": {"system": "ACHN renal"}, "BT-549 breast": {"system": "BT-549 breast"}, "CAKI-1 renal": {"system": "CAKI-1 renal"}, "CCRF-CEM leukemia": {"system": "CCRF-CEM leukemia"}, "COLO 205 colon": {"system": "COLO 205 colon"}, "DU-145 prostate": {"system": "DU-145 prostate"}, "EKVX NSCLC": {"system": "EKVX NSCLC"}, "HCC-2998 colon": {"system": "HCC-2998 colon"}, "HCT-116 colon": {"system": "HCT-116 colon"}, "HCT-15 colon": {"system": "HCT-15 colon"}, "HL-60(TB) leukemia": {"system": "HL-60(TB) leukemia"}, "HOP-62 NSCLC": {"system": "HOP-62 NSCLC"}, "HOP-92 NSCLC": {"system": "HOP-92 NSCLC"}, "HS 578T breast": {"system": "HS 578T breast"}, "HT29 colon": {"system": "HT29 colon"}, "IGROV1 ovarian": {"system": "IGROV1 ovarian"}, "K-562 leukemia": {"system": "K-562 leukemia"}, "KM12 colon": {"system": "KM12 colon"}, "LOX IMVI melanoma": {"system": "LOX IMVI melanoma"}, "M14 melanoma": {"system": "M14 melanoma"}, "MALME-3M melanoma": {"system": "MALME-3M melanoma"}, "MCF7 breast": {"system": "MCF7 breast"}, "MDA-MB-231 breast": {"system": "MDA-MB-231 breast"}, "MDA-MB-435": {"system": "MDA-MB-435"}, "MDA-MB-468 breast": {"system": "MDA-MB-468 breast"}, "MOLT-4 leukemia": {"system": "MOLT-4 leukemia"}, "NCI-H226 lung": {"system": "NCI-H226 lung"}}, "note": "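Tested at 5 concentrations; 48 h exposure; 96-well plates; endpoints linearly interpolated, else capped at highest concentration. Abbreviation: GI50, concentration required for 50% inhibition of growth. TGI: concentration producing complete growth inhibition.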"}
{"compound": "CC(C)(C)c1ccc(NCc2cn(-c3ccc(C(=O)O)cc3)nc2-c2ccc(C#N)cc2)cc1", "values": [{"measurement": "GI50", "setting": "786-0 renal", "result": 12.9, "unit": "µM"}, {"measurement": "TGI", "setting": "786-0 renal", "result": 27.6, "unit": "µM"}, {"measurement": "GI50", "setting": "A498 renal", "result": 11.1, "unit": "µM"}, {"measurement": "TGI", "setting": "A498 renal", "result": 23.4, "unit": "µM"}, {"measurement": "GI50", "setting": "A549 NSCLC", "result": 3.77, "unit": "µM"}, {"measurement": "TGI", "setting": "A549 NSCLC", "result": 17.1, "unit": "µM"}, {"measurement": "GI50", "setting": "ACHN renal", "result": 6.12, "unit": "µM"}, {"measurement": "TGI", "setting": "ACHN renal", "result": 60.1, "unit": "µM"}, {"measurement": "GI50", "setting": "BT-549 breast", "result": 6.77, "unit": "µM"}, {"measurement": "TGI", "setting": "BT-549 breast", "result": 22.4, "unit": "µM"}, {"measurement": "GI50", "setting": "CAKI-1 renal", "result": 8.23, "unit": "µM"}, {"measurement": "TGI", "setting": "CAKI-1 renal", "result": 26.3, "unit": "µM"}, {"measurement": "GI50", "setting": "CCRF-CEM leukemia", "result": 3.73, "unit": "µM"}, {"measurement": "TGI", "setting": "CCRF-CEM leukemia", "result": 36.8, "unit": "µM"}, {"measurement": "GI50", "setting": "COLO 205 colon", "result": 3.18, "unit": "µM"}, {"measurement": "TGI", "setting": "COLO 205 colon", "result": 11.8, "unit": "µM"}, {"measurement": "GI50", "setting": "DU-145 prostate", "result": 12.4, "unit": "µM"}, {"measurement": "TGI", "setting": "DU-145 prostate", "result": 38.2, "unit": "µM"}, {"measurement": "GI50", "setting": "EKVX NSCLC", "result": 3.07, "unit": "µM"}, {"measurement": "TGI", "setting": "EKVX NSCLC", "result": 12.5, "unit": "µM"}, {"measurement": "GI50", "setting": "HCC-2998 colon", "result": 3.31, "unit": "µM"}, {"measurement": "TGI", "setting": "HCC-2998 colon", "result": 11.7, "unit": "µM"}, {"measurement": "GI50", "setting": "HCT-116 colon", "result": 4.45, "unit": "µM"}, {"measurement": "TGI", "setting": "HCT-116 colon", "result": 17.3, "unit": "µM"}, {"measurement": "GI50", "setting": "HCT-15 colon", "result": 3.36, "unit": "µM"}, {"measurement": "TGI", "setting": "HCT-15 colon", "result": 12.6, "unit": "µM"}, {"measurement": "GI50", "setting": "HL-60(TB) leukemia", "result": 2.83, "unit": "µM"}, {"measurement": "TGI", "setting": "HL-60(TB) leukemia", "result": 14.1, "unit": "µM"}, {"measurement": "GI50", "setting": "HOP-62 NSCLC", "result": 5.28, "unit": "µM"}, {"measurement": "TGI", "setting": "HOP-62 NSCLC", "result": 20.8, "unit": "µM"}, {"measurement": "GI50", "setting": "HOP-92 NSCLC", "result": 8.12, "unit": "µM"}, {"measurement": "TGI", "setting": "HOP-92 NSCLC", "result": 23.3, "unit": "µM"}, {"measurement": "GI50", "setting": "HS 578T breast", "result": 3.54, "unit": "µM"}, {"measurement": "TGI", "setting": "HS 578T breast", "result": 27.2, "unit": "µM"}, {"measurement": "GI50", "setting": "HT29 colon", "result": 5.75, "unit": "µM"}, {"measurement": "TGI", "setting": "HT29 colon", "result": 21.4, "unit": "µM"}, {"measurement": "GI50", "setting": "IGROV1 ovarian", "result": 10.7, "unit": "µM"}, {"measurement": "TGI", "setting": "IGROV1 ovarian", "result": 25.6, "unit": "µM"}, {"measurement": "GI50", "setting": "K-562 leukemia", "result": 3.48, "unit": "µM"}, {"measurement": "TGI", "setting": "K-562 leukemia", "result": 76.9, "unit": "µM"}, {"measurement": "GI50", "setting": "KM12 colon", "result": 3.45, "unit": "µM"}, {"measurement": "TGI", "setting": "KM12 colon", "result": 13, "unit": "µM"}, {"measurement": "GI50", "setting": "LOX IMVI melanoma", "result": 7.3, "unit": "µM"}, {"measurement": "TGI", "setting": "LOX IMVI melanoma", "result": 20.3, "unit": "µM"}, {"measurement": "GI50", "setting": "M14 melanoma", "result": 7.28, "unit": "µM"}, {"measurement": "TGI", "setting": "M14 melanoma", "result": 25.9, "unit": "µM"}, {"measurement": "GI50", "setting": "MALME-3M melanoma", "result": 11.3, "unit": "µM"}, {"measurement": "TGI", "setting": "MALME-3M melanoma", "result": 28.3, "unit": "µM"}, {"measurement": "GI50", "setting": "MCF7 breast", "result": 3.43, "unit": "µM"}, {"measurement": "TGI", "setting": "MCF7 breast", "result": 21.6, "unit": "µM"}, {"measurement": "GI50", "setting": "MDA-MB-231 breast", "result": 12.2, "unit": "µM"}, {"measurement": "TGI", "setting": "MDA-MB-231 breast", "result": 27.5, "unit": "µM"}, {"measurement": "GI50", "setting": "MDA-MB-435", "result": 6.31, "unit": "µM"}, {"measurement": "TGI", "setting": "MDA-MB-435", "result": 32.7, "unit": "µM"}, {"measurement": "GI50", "setting": "MDA-MB-468 breast", "result": 10.1, "unit": "µM"}, {"measurement": "TGI", "setting": "MDA-MB-468 breast", "result": 34.3, "unit": "µM"}, {"measurement": "GI50", "setting": "MOLT-4 leukemia", "result": 4.34, "unit": "µM"}, {"measurement": "TGI", "setting": "MOLT-4 leukemia", "result": "> 100", "unit": "µM"}, {"measurement": "GI50", "setting": "NCI-H226 lung", "result": 10.8, "unit": "µM"}]}
